Experiment [1] has as its system E. coli strain TG1::PnlpD-yeaS. The experiment in a line: MIC of purine base analogues on M9 glucose minimal agar plates, yeaS-overexpressing strain. Type of experiment: cell-based. To be noted: Escherichia coli, 44 h, read-out: MIC for E. coli strain TG1::PnlpD-yeaS. The method, then: (§1) The minimal inhibitory concentrations (MIC) of purine base analogues for the strain TG1::PnlpD-yeaS and the parental strain TG1 were determined on M9 glucose minimal agar plates containing graded concentrations of inhibitors. The plates were spotted with 10^5 to 10^6 cells from an overnight culture grown in a minimal medium. The growth was estimated after 44 h incubation at 37° C.

Experiment [2] has as its system E. coli strain TG1. In words: MIC of purine base analogues on M9 glucose minimal agar plates, parental strain. To be noted: Escherichia coli, 10^5 to 10^6 cells spotted, growth after 44 h at 37° C. The format is cell-based. How it is done:
as §1

Regarding `Nc1nc(N)c2[nH]cnc2n1` [2,6-diaminopurine], the figures for the MIC in experiment [1] and in experiment [2] were 600 mg/L and 200 mg/L, respectively.

For `Sc1ncnc2nc[nH]c12` [6-mercaptopurine], the MIC in experiment [1] was found to be 150 mg/L; in experiment [2] it was 50 mg/L.

For the compound `Nc1nc2nc[nH]c2c(=S)[nH]1` [6-thioguanine], the MIC in experiment [1] came to 450 mg/L; in experiment [2] it was 30 mg/L.

As for `Nc1ncnc2nn[nH]c12` [8-azaadenine], the MIC in experiment [1] came to 250 mg/L; in experiment [2], 100 mg/L.

One may read the MIC as the smallest concentration in the dilution series that meets the test's criterion for growth inhibition.

The values are drawn from patent publication US8034767B2, “Method for producing purine nucleosides and nucleotides by fermentation using a bacterium belonging to the genus Escherichia or Bacillus” (priority 2006, dated 2011).
